Experiments:
Format in all cases: in vivo
[1] = system: BRAPP (Brachiaria platyphylla (Griseb.) Nash, broadleaf signalgrass); test: Postemergence foliar-applied herbicidal mixtures, direct seeded rice, greenhouse (Example I); conditions: Flumetsulam 6.25 gai/ha
Text: (§1) Seeds or nutlets of the desired test plant species were planted in a soil matrix prepared by mixing a loam or sandy loam soil (e.g., 28.6 percent silt, 18.8 percent clay, and 52.6 percent sand, with a pH of about 5.8 and an organic matter content of about 1.8 percent) and calcareous grit in an 80 to 20 ratio. The soil matrix was contained in plastic pots with a volume of 1 quart and a surface area of 83.6 square centimeters (cm^2). When required to ensure good germination and healthy plants, a fungicide treatment and/or other chemical or physical treatment was applied. The plants were grown for 8-22 days in a greenhouse with an approximate 14 h photoperiod which was maintained at about 29° C. during the day and about 26° C. during the night. Nutrients (Peters Excel® 15-5-15 5-Ca 2-Mg and iron chelate) were applied in the irrigation solution as needed and water was added on a regular basis. Supplemental lighting was provided with overhead metal halide 1000-Watt lamps as necessary. The plants were employed for testing when they reached the first through fourth true leaf stage.
(§2) Treatments consisted of the acid or esters of 4-amino-3-chloro-5-fluoro-6-(4-chloro-2-fluoro-3-methoxy-phenyl)pyridine-2-carboxylic acid (Compound A), each formulated as an SC (suspension concentrate), and various herbicidal components alone and in combination. Forms of compound A were applied on an acid equivalent basis.
(§3) Other herbicidal components were applied on an active ingredient basis and included acetolactate synthase (ALS)-inhibiting herbicides (sulfonamide chemical class) penoxsulam formulated as Grasp® SC, diclosulam formulated as Strongarm®, and cloransulam-methyl formulated as FirstRate®, flumetsulam formulated as Flumetsulam WG, and metosulam formulated as Eclipse®.
(§4) Treatment requirements were calculated based upon the rates being tested, the concentration of active ingredient or acid equivalent in the formulation, and a 12 mL application volume at a rate of 187 L/ha.
(§5) For treatments comprised of formulated compounds, measured amounts of compounds were placed individually in 25 mL glass vials and diluted in a volume of 1.25% (v/v) Agri-Dex® crop oil concentrated to obtain 12× stock solutions. […] Application solutions were prepared by adding an appropriate amount of each stock solution (e.g., 1 mL) and diluted to the appropriate final concentrations with the addition of 10 mL of an aqueous mixture of 1.25% (v/v) crop oil concentrate so that the final spray solutions contained 1.25+/−0.05% (v/v) crop oil concentrate.
(§6) All stock solutions and applications solutions were visually inspected for compound compatibility prior to application. Spray solutions were applied to the plant material with an overhead Mandel track sprayer equipped with an 8002E nozzle calibrated to deliver 187 L/ha over an application area of 0.503 m^2 at a spray height of 18 to 20 inches (46 to 50 cm) above average plant canopy height. Control plants were sprayed in the same manner with the solvent blank.
(§7) The treated plants and control plants were placed in a greenhouse as described above and watered by sub-irrigation to prevent wash-off of the test compounds. After approximately 3 weeks, the condition of the test plants as compared with that of the untreated plants was determined visually and scored on a scale of 0 to 100 percent where 0 corresponds to no injury or growth inhibition and 100 corresponds to complete kill.
(§8) Colby's equation was used to determine the herbicidal effects expected from the mixtures (Colby, S. R. 1967. Calculation of the synergistic and antagonistic response of herbicide combinations. Weeds 15:20-22.).
(§9) The following equation was used to calculate the expected activity of mixtures containing two active ingredients, A and B: Expected=A+B−(A×B/100)

[2] = system: CYPIR (Cyperus iria L., rice flatsedge); test: as above
Text: as §1, §2, §3, §4, §5, §6, §7, §8, §9

[3] = system: LEFCH (Leptochloa chinensis (L.) Nees, Chinese sprangletop); test: as above; conditions: Metosulam 6.25 gai/ha
Text: as §1, §2, §3, §4, §5, §6, §7, §8, §9

[4] = system: CIRAR (Cirsium arvense (L.) Scop., Canada thistle); test: Postemergence foliar-applied herbicidal mixtures, cereal crops, greenhouse (Example III); conditions: Pyroxsulam 3.75 gai/ha, visual score 0 to 100 percent after 20-22 days
Protocol: Seeds of the desired test plant species were planted in Sun Gro MetroMix® 306 planting mixture, which typically has a pH of 6.0 to 6.8 and an organic matter content of about 30 percent, in plastic pots with a surface area of 103.2 square centimeters (cm^2). […] The plants were grown for 7-36 days in a greenhouse with an approximate 14 hour photoperiod which was maintained at about 18° C. during the day and about 17° C. during the night. Nutrients and water were added on a regular basis and supplemental lighting was provided with overhead metal halide 1000-Watt lamps as necessary. The plants were employed for testing when they reached the second or third true leaf stage.
Treatments consisted of the benzyl ester of 4-amino-3-chloro-5-fluoro-6-(4-chloro-2-fluoro-3-methoxy-phenyl)pyridine-2-carboxylic acid (Compound A), formulated as an SC, a second cereal herbicide alone and then both in combination.
Other herbicidal components were applied on an active ingredient basis and included acetolactate synthase (ALS)-inhibiting herbicides (sulfonamide chemical class) florasulam formulated as Derby® and pyroxsulam formulated as PowerFlex®. A measured aliquot of benzyl ester of 4-amino-3-chloro-5-fluoro-6-(4-chloro-2-fluoro-3-methoxy-phenyl)pyridine-2-carboxylic acid (Compound A) was placed in 25 milliliter (mL) glass vials and diluted in a volume of 1.25% (v/v) AgriDex® crop oil concentrated to obtain a stock solution. Compound requirements are based upon a 12 mL application volume at a rate of 187 liters per hectare (L/ha). […] Formulated compounds were applied to the plant material with an overhead Mandel track sprayer equipped with an 8002E nozzle calibrated to deliver 187 L/ha over an application area of 0.503 square meters (m^2) at a spray height of 18 inches (46 cm) above average plant canopy. Control plants were sprayed in the same manner with the solvent blank.
as §7, with “20-22 days,” for “approximately 3 weeks,”, “control” for “untreated”, “injury” for “injury or growth inhibition”
as §8, §9

Question: For `Cc1ccn2nc(S(=O)(=O)Nc3c(F)cccc3F)nc2n1` [Flumetsulam, N-(2,6-difluorophenyl)-5-methyl[1,2,4]triazolo[1,5-a]pyrimidine-2-sulfonamide, reference compound], which “Visual Weed Control (%) - 22 DAA BRAPP Obs” value [1] is on record?
Answer: 30%

Question: What about the “Visual Weed Control (%) - 22 DAA CYPIR Obs” value ([2]; Flumetsulam 6.25 gai/ha) of the same compound?
Answer: 20%

Question: What about the “Visual Weed Control (%) - 22 DAA CYPIR Obs” value ([2]; Flumetsulam 12.5 gai/ha) of the same compound?
Answer: 55%

Question: And the “Visual Weed Control (%) - 22 DAA CYPIR Obs” value ([2]; Flumetsulam 25 gai/ha)?
Answer: 30%

Question: For `COc1cc(OC)n2nc(S(=O)(=O)Nc3c(Cl)ccc(C)c3Cl)nc2n1` [Metosulam, N-(2,6-dichloro-3-methylphenyl)-5,7-dimethoxy[1,2,4]triazolo[1,5-a]pyrimidine-2-sulfonamide, reference compound], which “Visual Weed Control (%) - 22 DAA LEFCH Obs” value [3] is on record?
Answer: 15%

Question: With `COc1cc(OC)n2nc(NS(=O)(=O)c3c(C(F)(F)F)ccnc3OC)nc2n1` [Pyroxsulam, N-(5,7-dimethoxy[1,2,4]triazolo[1,5-a]pyrimidin-2-yl)-2-methoxy-4-(trifluoromethyl)-3-pyridinesulfonamide, reference compound] as the compound, how does the “CIRAR Obs” value [4] read?
Answer: 60%
